Measured values published in ChEMBL document CHEMBL1145531, “Cyclopentanone ring-cleaved pleuromutilin derivatives” (2007).
Values after ≈ are worked out from the molar mass of the structure shown.

Columns and labels:
Streptococcus pneumoniae = assay: Antibacterial activity against Streptococcus pneumoniae A9585 after 24 hrs; assay type: functional; details: A9585, 24 h
Staphylococcus aureus = assay: Antibacterial activity against Staphylococcus aureus A15090 after 24 hrs; assay type: functional; details: A15090, 24 h

Row | Compound | MIC (Streptococcus pneumoniae) [µg/mL] | MIC (Staphylococcus aureus) [µg/mL]
1 | C=C[C@]1(C)C[C@@H](OC(=O)CSc2ccccn2)[C@@]2(C)C(=O)[C@](CCC(=O)OCC)(CCC2C)[C@@H](C)[C@@H]1O (stereo not given in full) | 1 (≈ 1.88 µM) | 1 (≈ 1.88 µM)
2 | C=C[C@]1(C)C[C@@H](OC(=O)CO)[C@@]2(C)C(=O)[C@](CCCO)(CCC2C)[C@@H](C)[C@@H]1O (stereo not given in full) | > 64 | > 128
3 | C=C[C@]1(C)C[C@@H](OC(=O)CSc2cccc(N)c2)[C@@]2(C)C(=O)[C@](CCC(=O)NCC(=O)O)(CCC2C)[C@@H](C)[C@@H]1O (stereo not given in full) | 2 (≈ 3.48 µM) | 8 (≈ 13.9 µM)
4 | C=C[C@]1(C)C[C@@H](OC(=O)CSc2nnc(N)[nH]2)[C@@]2(C)C(=O)[C@](CCC(=O)O)(CCC2C)[C@@H](C)[C@@H]1O (stereo not given in full) | > 64 | > 128
5 | C=C[C@]1(C)C[C@@H](OC(=O)CSc2cccc(N)c2)[C@@]2(C)C(=O)[C@](CCC(=O)OCC)(CCC2C)[C@@H](C)[C@@H]1O (stereo not given in full) | 1 (≈ 1.83 µM) | 1 (≈ 1.83 µM)
6 | C=C[C@]1(C)C[C@@H](OC(=O)CSc2cc(C)nc(C)c2)[C@@]2(C)C(=O)[C@](CCC(=O)N(CC)CC)(CCC2C)[C@@H](C)[C@@H]1O (stereo not given in full) | 4 (≈ 6.82 µM) | 32 (≈ 54.5 µM)
7 | C=C[C@]1(C)C[C@@H](OC(=O)CO)[C@@]2(C)C(=O)[C@](CCC(=O)NCC)(CCC2C)[C@@H](C)[C@@H]1O (stereo not given in full) | > 64 | > 128
8 | C=C[C@]1(C)C[C@@H](OC(=O)CSc2ccncc2)[C@@]2(C)C(=O)[C@](CCC(=O)O)(CCC2C)[C@@H](C)[C@@H]1O (stereo not given in full) | 64 (≈ 127 µM) | 128 (≈ 254 µM)
9 | C=C[C@]1(C)C[C@@H](OC(=O)CO)[C@@]2(C)C(=O)[C@](CCC(=O)O)(CCC2C)[C@@H](C)[C@@H]1O (stereo not given in full) | 8 (≈ 19.5 µM) | 8 (≈ 19.5 µM)
10 | C=C[C@]1(C)C[C@@H](OC(=O)CO)[C@@]2(C)C(=O)[C@](CCC(=O)N(CC)CC)(CCC2C)[C@@H](C)[C@@H]1O (stereo not given in full) | > 64 | > 128
11 | C=C[C@]1(C)C[C@@H](OC(=O)CSc2cccc(N)c2)[C@@]2(C)C(=O)[C@](CCC(=O)NCC(=O)OC(C)(C)C)(CCC2C)[C@@H](C)[C@@H]1O (stereo not given in full) | 0.5 (≈ 0.793 µM) | 4 (≈ 6.34 µM)
12 | C=C[C@]1(C)C[C@@H](OC(=O)CO)[C@@]2(C)C(=O)[C@](CCCNC(=O)c3ccno3)(CCC2C)[C@@H](C)[C@@H]1O (stereo not given in full) | 2 (≈ 4.08 µM) | 32 (≈ 65.2 µM)
13 | C=C[C@]1(C)C[C@@H](OC(=O)CSc2cccc(N)c2)[C@@]2(C)C(=O)[C@](CCC)(CCC2C)[C@@H](C)[C@@H]1O (stereo not given in full) | 8 (≈ 16.4 µM) | 16 (≈ 32.8 µM)
14 | C=C[C@]1(C)C[C@@H](OC(=O)CO)[C@@]2(C)C(=O)[C@](CCC(N)=O)(CCC2C)[C@@H](C)[C@@H]1O (stereo not given in full) | 64 (≈ 156 µM) | 128 (≈ 313 µM)
15 | C=C[C@]1(C)C[C@@H](OC(=O)CSc2ccccc2O)[C@@]2(C)C(=O)[C@](CCC(=O)O)(CCC2C)[C@@H](C)[C@@H]1O (stereo not given in full) | 4 (≈ 7.71 µM) | 8 (≈ 15.4 µM)
16 | C=C[C@]1(C)C[C@@H](OC(=O)CO)[C@@]2(C)C(=O)[C@](CCNC(=O)OCC)(CCC2C)[C@@H](C)[C@@H]1O (stereo not given in full) | 0.25 (≈ 0.551 µM) | 16 (≈ 35.3 µM)
17 | C=C[C@]1(C)C[C@@H](OC(=O)CO)[C@@]2(C)C(=O)[C@](CCN)(CCC2C)[C@@H](C)[C@@H]1O (stereo not given in full) | > 64 | > 128
18 | C=C[C@]1(C)C[C@@H](OC(=O)CO)[C@]2(C)[C@H](C)CC[C@]3(CCC(=O)[C@@H]32)[C@@H](C)[C@@H]1O [PLEUROMUTILIN] | 0.5 (≈ 1.32 µM) | 0.5 (≈ 1.32 µM)
19 | C=C[C@]1(C)C[C@@H](OC(=O)CSc2ccncc2)[C@@]2(C)C(=O)[C@](CCC(=O)OCC)(CCC2C)[C@@H](C)[C@@H]1O (stereo not given in full) | 8 (≈ 15 µM) | 8 (≈ 15 µM)
20 | C=C[C@]1(C)C[C@@H](OC(=O)CSc2ccccc2)[C@@]2(C)C(=O)[C@](CCC(=O)O)(CCC2C)[C@@H](C)[C@@H]1O (stereo not given in full) | > 64 | > 128
21 | C=C[C@]1(C)C[C@@H](OC(=O)CSc2ccccn2)[C@@]2(C)C(=O)[C@](CCC(=O)O)(CCC2C)[C@@H](C)[C@@H]1O (stereo not given in full) | 8 (≈ 15.9 µM) | 8 (≈ 15.9 µM)
22 | C=C[C@]1(C)C[C@@H](OC(=O)CSc2cccc(N)c2)[C@@]2(C)C(=O)[C@](CCC(=O)N(CC)CC)(CCC2C)[C@@H](C)[C@@H]1O (stereo not given in full) | 4 (≈ 6.98 µM) | 32 (≈ 55.9 µM)
23 | C=C[C@]1(C)C[C@@H](OC(=O)CSc2ccccc2C(=O)O)[C@@]2(C)C(=O)[C@](CCC(=O)N(CC)CC)(CCC2C)[C@@H](C)[C@@H]1O (stereo not given in full) | 4 (≈ 6.65 µM) | 32 (≈ 53.2 µM)
24 | C=C[C@]1(C)C[C@@H](OC(=O)CO)[C@@]2(C)C(=O)[C@](CCNC(=O)OCc3ccccc3)(CCC2C)[C@@H](C)[C@@H]1O (stereo not given in full) | 0.25 (≈ 0.485 µM) | 16 (≈ 31 µM)
25 | C=C[C@]1(C)C[C@@H](OC(=O)CSc2cccc(N)c2)[C@@]2(C)C(=O)[C@](CCC(=O)O)(CCC2C)[C@@H](C)[C@@H]1O (stereo not given in full) | 0.125 (≈ 0.241 µM) | 0.25 (≈ 0.483 µM)
